Where two headings read alike, the source gives them in different places.
Assays:
[1] = Effect of cellulosics (Methocel) on in vitro release from EVA (Example 5); format: physicochemical; conditions: EVA with 5% or 25% Methocel, PBS pH 6.10:ethanol 70:30, 37° C.
Text: Also, varying amounts of a commercially available cellulosic, Methocel® (Dow Chemicals, Co., Midland, Mich.) were incorporated into the mixtures to evaluate the effect of cellulosics on release kinetics. […] The solutions were slowly emulsified into a methylene chloride solution containing EVA. The resulting emulsions were solvent-casted into a mold, which was then cooled on dry ice. Following sublimation, the […] were cut into 1 cm×1 cm samples, and placed in scintillation vials, to which 0.1 M phosphate buffered saline (pH 6.10) and ethanol were added in a 70:30 ratio. The vials were placed in a 37° C. incubator on a shaker rotating at 100 RPM. The buffer solution was replaced at predetermined time points. […] Next, the release kinetics were determined by plotting the cumulative release amounts as a function of time.

[2] = In vitro release from double-sided EVA disc (Example 6); format: physicochemical; conditions: 70:30 PBS:EtOH pH 6, 37° C.
Procedure: Also, the EVA/drug mixtures were combined to form a double-sided disc, comprising estradiol on one side and progesterone on the other. After drying, the discs were evaluated for their release kinetics. […] At the indicated time points, 100% of the media was collected for measurement and 100 ml of release media was replaced. The media was measured by an Agilent 1100 Series HPLC (Agilent). […] Results were calculated based on the area under the curve compared to a 5 point calibration curve and depicted in FIG. 7 as the cumulative percent released.

[3] = Expected characteristics of Ring A / Ring B formulations (Table II); format: in vivo; conditions: 21 days of release
Text: In an alternate embodiment of this aspect of the invention, the two formulations described above (the LHRH/estrogenic steroid formulation and LHRH/estrogenic/progestational steroid formulation) are combined in one drug delivery device, which is designed to remain in the vagina of the female for the entire menstrual cycle. In this embodiment, the drug delivery device comprises at least one cylindrical unitary segment per hormonal formulation, or, alternatively, at least one cylindrical unitary segment per active ingredient (i.e., LHRH, sex steroid, or sex steroid modulator). The choice of polymeric material and the ratio of polymeric material to LHRH/sex steroid/sex steroid modulator are preselected for each segment to provide the appropriate release kinetics for the individual steroids and/or steroidal formulations. By selecting the polymeric material based on its release properties and adjusting the ratio of polymeric material to drug, the method of the present invention provides the pre-set timed delivery of LHRH, estrogenic steroid, and progestational steroid at the appropriate phase of the menstrual cycle to achieve the desired contraceptive effect. For example, this “combined” device would release LHRH and/or its agonists or antagonists continuously for 30 days in combination with an estrogenic compound.

[4] = endogenous, normal menstrual cycle, cited from earlier work; for Tmax: phase of cycle
[5] = format: physicochemical; conditions: for In vitro release kinetics: EVA ring, 70:30 PBS:EtOH pH 6, 37° C., 14 to 21 day period
Procedure: At the indicated time points media was collected and measured by HPLC on an Agilent 1100 Series HPLC (Agilent, Forest City, Calif.). […] Results were calculated based on the area under the curve compared to a 5 point calibration curve. Results were expressed as the cumulative release in μg released over the course of the experiment.

[6] = format: in vivo; conditions: for Duration of release from the ring: delayed release ring
Procedure: The rate of hydration of the intravaginal device depends on many factors, including the rate of water penetration into the polymer. The rate of water penetration can be modulated by the osmotic pressure within the polymer. The osmotic pressure can be modulated by adding salt (NaCl, KCl, etc) to the formulation of the drug.
Estradiol and GnRH can be formulated as described herein. Yet, additional salt is added (300 mmol).

[7] = tested on: endogenous luteinizing hormone (LH); test: Intravaginal administration of GnRH/hydrogel to Rhesus monkeys, serum endogenous LH (Example 7); format: in vivo; conditions: 10 mg GnRH in 2 g hydrogel, 48 hours
[8] = estradiol administered at 100 μg/day; cited from earlier work

Compound | In vitro release kinetics with addition of Methocel [1] | In vitro release kinetics [2] | Drug Circulation Level ([3]; Ring B) [pg/mL] | Cmax [4] [ng/mL] | Steady State Serum Concentration [4] [ng/mL] | T1/2 [4] [h] | Tmax [4] | In vitro release kinetics [5] | Duration of release from the ring [6] [days] | Time after which release begins ([6]; segment without salt) [days] | Effect on endogenous LH levels [7] | Serum level in the circulation that the delivery rates are capable of producing [5] [ng/mL] | Time for which the ring sustains adequate flux rates ([5]; not told) | Serum level produced [8] | Drug Circulation Level ([3]; Ring A) [pg/mL]
CC(=O)[C@H]1CC[C@H]2[C@@H]3CCC4=CC(=O)CC[C@]4(C)[C@H]3CC[C@]12C [Progesterone, progesterone] | pseudo zero order release kinetics | independent bi-phasic release kinetics | 6000 | 35 | 2 to 6 | 12 | Midluteal | stable zero order release kinetics | 4 | 14 |  |  |  |  | 
CCNC(=O)[C@@H]1CCCN1C(=O)[C@H](CCCNC(=N)N)NC(=O)[C@H](CC(C)C)NC(=O)[C@@H](Cc1c[nH]c2ccccc12)NC(=O)[C@H](Cc1ccc(O)cc1)NC(=O)[C@H](CO)NC(=O)[C@H](Cc1c[nH]c2ccccc12)NC(=O)[C@H](Cc1c[nH]cn1)NC(=O)[C@@H]1CCC(=O)N1 [D-Trp6-Pro9-Net-GnRH] |  |  |  |  |  |  |  |  | 28 |  |  |  |  |  | 
p-Glu-His-Trp-Ser-Tyr-Gly-Leu-Arg-Pro-Gly-NH2 [GnRH] |  |  |  |  |  |  |  | stable zero order release kinetics |  |  | produces elevated levels of endogenous LH | 3 to 6 | at least 21 days |  | 
C[C@]12CC[C@@H]3c4ccc(O)cc4CC[C@H]3[C@@H]1CC[C@@H]2O [Estradiol, estradiol] |  |  | 100 | 0.5 | 0.05 to 0.5 |  | Midcycle |  |  |  |  |  |  | approximately 100 pg/ml | 100
